From paper PMC5944028, “Nonclinical and clinical pharmacological characterization of the potent and selective cathepsin K inhibitor MIV-711” (Journal of Translational Medicine, 2018)
Read-outs that look alike come from different tables or passages of the source.

Columns and labels:
[1] = test system: > 70 different ion channels, receptors, transporters and CYP enzymes; experiment: PanLabs broad panel; conditions: 10 µmol/L
Method: MIV-711 was analyzed against > 70 different ion channels, receptors, transporters and cytochrome P450 (CYP) enzymes at a concentration of 10 µmol/L at PanLabs (Taipei, Taiwan).

human cathepsin V = target: T1, human cathepsin V (Homo sapiens, UniProt O60911); experiment: Enzyme assay, human cathepsin V; format: biochemical
T1 construct: purchased R & D Systems
T1 sequence (O60911 114-334): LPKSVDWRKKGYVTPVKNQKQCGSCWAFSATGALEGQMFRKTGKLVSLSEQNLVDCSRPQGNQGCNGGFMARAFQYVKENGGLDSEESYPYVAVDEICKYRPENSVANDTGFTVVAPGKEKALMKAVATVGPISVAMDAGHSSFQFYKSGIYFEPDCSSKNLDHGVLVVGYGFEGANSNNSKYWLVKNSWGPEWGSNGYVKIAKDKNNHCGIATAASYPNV
Text: (§1) Recombinant cathepsin K enzymes from all species were expressed in E. coli, purified and activated. Human cathepsin F and cathepsin S were expressed in Baculovirus, purified and activated. Purified human cathepsins B and H (Athens Research Technology), cathepsin L (Calbiochem), and cathepsin V (R & D Systems) were purchased.
(§2) H-D-Ala_Leu-Lys-AMC was used as the substrate in assays of cathepsin K from non-rodent species (human, dog, rabbit and guinea pig), and Z-Leu-Arg-AMC was used as the substrate in assays of cathepsin K from rodent species (mouse and rat). […]
(§3) Assays were carried out in white polystyrene 96-well plates in a final volume of 100 µL. […] Plates were read in a Fluoroskan Ascent (Thermo Labsystems, Helsinki, Finland) in kinetic mode, with excitation and emission filters of 390 and 460 nm, respectively. Rates were determined by linear regression of the fluorescence/time data in Excel. Rates were fitted by non-linear regression to either the competitive inhibition equation, with the substrate concentration fixed at the value in the assay and the KM fixed to the value previously determined, or the IC50 equation using GraphPad Prism (GraphPad, version 6, San Diego, USA) to obtain Ki or IC50 values, respectively.

urinary CTX-II = conditions: cited from earlier work
mouse cathepsin K = target: T2, mouse cathepsin K (Mus musculus, UniProt P55097); experiment: Recombinant enzyme assay, mouse cathepsin K; format: biochemical; conditions: footnote a: IC50
T2 construct: made in house; host or cells: E. coli
T2 sequence (P55097 115-329): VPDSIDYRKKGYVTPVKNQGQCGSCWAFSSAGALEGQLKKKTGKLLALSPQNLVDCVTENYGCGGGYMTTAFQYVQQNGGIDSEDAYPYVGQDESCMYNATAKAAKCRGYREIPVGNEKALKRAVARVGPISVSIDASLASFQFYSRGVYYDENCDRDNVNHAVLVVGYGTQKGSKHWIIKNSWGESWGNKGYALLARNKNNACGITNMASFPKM
Text: as §1, §2, §3

human cathepsin S = target: T3, human cathepsin S (Homo sapiens, UniProt P25774); experiment: Enzyme assay, human cathepsin S; format: biochemical; conditions: geometric mean
T3 construct: made in house
T3 sequence (P25774 115-331): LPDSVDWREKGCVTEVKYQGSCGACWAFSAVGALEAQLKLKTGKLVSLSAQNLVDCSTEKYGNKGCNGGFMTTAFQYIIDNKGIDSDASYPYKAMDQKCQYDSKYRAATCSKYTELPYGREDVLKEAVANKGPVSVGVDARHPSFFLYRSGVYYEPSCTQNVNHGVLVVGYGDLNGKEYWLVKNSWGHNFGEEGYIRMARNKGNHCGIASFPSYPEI
Text: as §1, §2, §3

dog cathepsin K = target: T4, dog cathepsin K (Canis lupus familiaris, UniProt Q3ZKN1); experiment: Recombinant enzyme assay, dog cathepsin K; format: biochemical; conditions: geometric mean
T4 construct: made in house; host or cells: E. coli
T4 sequence (Q3ZKN1 116-330): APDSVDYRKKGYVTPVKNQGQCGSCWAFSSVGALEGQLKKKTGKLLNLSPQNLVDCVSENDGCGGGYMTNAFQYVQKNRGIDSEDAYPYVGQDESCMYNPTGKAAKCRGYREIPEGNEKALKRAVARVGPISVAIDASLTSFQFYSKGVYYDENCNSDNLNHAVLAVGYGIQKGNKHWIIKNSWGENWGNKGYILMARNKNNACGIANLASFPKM
Text: as §1, §2, §3

plasma CTX-I = experiment: Monkey plasma CTX-I, single oral dose; format: in vivo, cynomolgus monkeys (Macaca fascicularis)
Method: Eight cynomolgus monkeys (Macaca fascicularis) were used for measuring plasma levels of MIV-711 and CTX-I after a single dose. The animals were healthy young males, approximately 2–4 years old and weighing 3–4 kg. Experiments were performed at Covance Ltd (Harrogate, UK). The monkeys were used over an extended period of time (up to a year) and several cathepsin K inhibitors were evaluated during this time. At least 1 week was allowed for washout in between experiments. This was not believed to affect the results with MIV-711, and vehicle controls were run on a regular basis when appropriate. Each animal received at least one dose of MIV-711 and one dose of vehicle with at least 1 week of washout in between treatments.
In single dose experiments, animals were dosed with vehicle or MIV-711 (3–30 µmol/kg) via oral gavage at a dose volume of 4 mL/kg between 7:30 and 9:00 a.m. Blood samples were collected at baseline, 30 min, 1, 2, 4, 8, 12, 24 and 48 h after dose from the femoral vein and transferred into lithium heparin anticoagulant tubes. The samples were centrifuged and the two aliquots of the resultant plasma were frozen at − 70 °C. All samples were processed and stored within 30 min of collection. The aliquots were used to determine the MIV-711 concentration and CTX-I levels, respectively. [drawing 1]
Since the concentration of MIV-711 was measured in each animal it was possible to relate the MIV-711 exposure over 24 h to the % CTX-I inhibition over 24 h in each animal.
The quantification of CTX-I in monkey plasma samples and human serum samples was performed using a commercially available kit (Serum CrossLaps ELISA, IDS Nordic, Herlev, Denmark). The levels of CTX-I in monkey urine samples were measured using a commercially available kit (Urine BETA CrossLaps ELISA, IDS Nordic). The quantification of NTX-I in monkey samples was performed using a commercially available kit (Osteomark NTx Urine, Wampole Laboratories, Inc, Princeton, USA). Urinary levels of CTX-II in monkey samples were measured using a commercially available kit (Urine CrossLaps EIA, IDS Nordic). The concentrations of biomarkers in the urine samples were corrected for creatinine concentrations. The creatinine levels in urine were determined at Swedish University of Agricultural Sciences, using the enzymatic assay (cat no. 8L24-01) on the Abbott system Architect c4000.

[2] = test system: differentiated human osteoclasts; set-up: method as in PMID 20097319; conditions: bovine bone slices; read-out: IC50 in bone resorption assay; cited from earlier work
human cathepsin H = target: T5, human cathepsin H (Homo sapiens, UniProt P09668); experiment: Enzyme assay, human cathepsin H; format: biochemical
T5 construct: purchased Athens Research Technology
T5 sequence (P09668 98-335): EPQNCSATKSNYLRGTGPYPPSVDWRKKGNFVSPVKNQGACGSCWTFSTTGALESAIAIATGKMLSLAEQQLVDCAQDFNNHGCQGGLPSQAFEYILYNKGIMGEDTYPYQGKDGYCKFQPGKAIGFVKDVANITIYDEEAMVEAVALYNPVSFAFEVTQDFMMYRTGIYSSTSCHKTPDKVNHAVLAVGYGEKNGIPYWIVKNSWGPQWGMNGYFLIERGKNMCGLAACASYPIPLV
Text: as §1, §2, §3

guinea pig cathepsin K = experiment: Recombinant enzyme assay, guinea pig cathepsin K; format: biochemical; conditions: geometric mean
Text: as §1, §2, §3

For `C#C[C@@H]1CN(C(=O)[C@H](CC(C)C)NC(=O)c2ccc(-c3nc(N4CCN(C)CC4)sc3F)cc2)[C@@H]2C(=O)CO[C@H]12` [MIV-711], the “Responses (more than 50% inhibition) in broad panel” value [1] is given as “No significant responses”, the Ki (human cathepsin V) is given as 4 µM and the “Reduction of urinary CTX-II” value (urinary CTX-II; healthy subjects, 200 mg daily for 7 days) is given as 72%. The “Reduction of urinary CTX-II” value (urinary CTX-II; postmenopausal women, 100 mg once daily for 1 month) was 55%, the IC50 (mouse cathepsin K) was 1 µM and the Ki (human cathepsin S) was 15.7 µM. For the same molecule, the Ki (dog cathepsin K) was 0.0015 µM, the “Effect on plasma CTX-I versus vehicle” value (plasma CTX-I; 3 µmol/kg p.o. (p > 0.05)) was “did not differ significantly vs. vehicle” and the “Effect on plasma CTX-I versus vehicle” value (plasma CTX-I; 10 µmol/kg p.o., between 8 and 24 h post-dose (p < 0.05)) was “statistically significant versus vehicle”. The “Exposure required for 50% reduction of CTX-I at 24 h post dose” value (plasma CTX-I; AUC0–24h) was 1.5 µmol/L/h, the “Reduction of plasma CTX-I compared to baseline” value (plasma CTX-I; highest dose (30 µmol/kg p.o.), 24 h post-dose) was 57% and the IC50 [2] was 0.037 µM. For the same molecule, the Ki (human cathepsin H) was greater than 10 µM and the Ki (guinea pig cathepsin K) was 0.0098 µM.
